The numbers were not newly measured in paper PMC6017357, “In Vitro Inhibitory Effects of Synthetic Cannabinoid EAM-2201 on Cytochrome P450 and UDP-Glucuronosyltransferase Enzyme Activities in Human Liver Microsomes” (Molecules : A Journal of Synthetic Chemistry and Natural …, 2018), which cites them from elsewhere.

The structures appear in SMILES notation. Read-outs that look alike come from different tables or passages of the source.

Data set [1] has as its target T1, CYP2C9 (Homo sapiens, UniProt P11712). Further details: CYP2C8, CYP2C9, CYP2C19 and CYP3A4 activities in ultrapooled human liver microsomes were evaluated; from tissue; host or cells: ultrapooled human liver microsomes; method as in PMID 18838506. As to conditions: typical CYP2C9 mechanism-based inhibitors; cited from earlier work.
The target in another data set is T2, UGT1A3 (Homo sapiens, UniProt P35503).
T2 sequence (P35503 29-534): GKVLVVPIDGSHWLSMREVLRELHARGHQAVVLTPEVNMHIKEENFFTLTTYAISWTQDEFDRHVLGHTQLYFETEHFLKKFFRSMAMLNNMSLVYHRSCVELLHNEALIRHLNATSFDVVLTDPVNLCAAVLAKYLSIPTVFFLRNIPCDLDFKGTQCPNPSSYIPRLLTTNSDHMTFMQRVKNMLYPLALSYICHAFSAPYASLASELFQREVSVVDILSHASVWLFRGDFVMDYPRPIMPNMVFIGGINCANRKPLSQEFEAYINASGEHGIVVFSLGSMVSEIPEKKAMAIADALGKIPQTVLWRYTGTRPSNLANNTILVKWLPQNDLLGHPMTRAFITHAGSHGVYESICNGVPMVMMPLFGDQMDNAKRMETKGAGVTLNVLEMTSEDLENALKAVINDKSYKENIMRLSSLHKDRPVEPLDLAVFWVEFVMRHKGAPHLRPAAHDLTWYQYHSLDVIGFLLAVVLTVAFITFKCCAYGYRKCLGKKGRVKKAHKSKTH
The settings on record: human liver microsomes, cited from earlier work; for Ki: read-out: Ki, UGT1A3-catalyzed chenodeoxycholic acid 24-acyl glucuronidation. In general terms: Liver microsomes are vesicles of endoplasmic reticulum, rich in cytochrome P450 enzymes.

The target in data set [2] is T3, CYP2C8 (Homo sapiens, UniProt P10632).
T3 sequence (P10632 1-490): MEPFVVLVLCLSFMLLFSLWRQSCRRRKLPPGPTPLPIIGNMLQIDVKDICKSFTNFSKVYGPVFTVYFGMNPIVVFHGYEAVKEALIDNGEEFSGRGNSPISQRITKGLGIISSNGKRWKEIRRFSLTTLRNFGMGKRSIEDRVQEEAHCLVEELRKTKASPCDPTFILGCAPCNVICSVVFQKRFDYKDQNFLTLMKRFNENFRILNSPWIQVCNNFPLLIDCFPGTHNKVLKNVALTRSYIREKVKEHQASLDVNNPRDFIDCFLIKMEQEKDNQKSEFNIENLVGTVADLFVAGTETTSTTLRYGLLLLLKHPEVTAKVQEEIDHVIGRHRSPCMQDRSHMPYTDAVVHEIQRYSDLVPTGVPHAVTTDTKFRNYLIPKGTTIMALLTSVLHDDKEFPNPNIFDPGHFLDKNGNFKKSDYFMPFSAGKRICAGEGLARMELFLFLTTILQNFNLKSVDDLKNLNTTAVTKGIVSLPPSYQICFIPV
As to conditions: cited from earlier work; for time-dependent inhibition of CYP2C8 activity: human liver microsomes.

The target of data set [3] is T4, CYP3A4 (Homo sapiens, UniProt P08684). As to conditions: read-out: Ki, CYP3A4 midazolam 1′-hydroxylation; competitive (AM-2201) and noncompetitive (MAM-2201) inhibition, human liver microsomes; cited from earlier work.
T4 sequence (P08684 whole entry): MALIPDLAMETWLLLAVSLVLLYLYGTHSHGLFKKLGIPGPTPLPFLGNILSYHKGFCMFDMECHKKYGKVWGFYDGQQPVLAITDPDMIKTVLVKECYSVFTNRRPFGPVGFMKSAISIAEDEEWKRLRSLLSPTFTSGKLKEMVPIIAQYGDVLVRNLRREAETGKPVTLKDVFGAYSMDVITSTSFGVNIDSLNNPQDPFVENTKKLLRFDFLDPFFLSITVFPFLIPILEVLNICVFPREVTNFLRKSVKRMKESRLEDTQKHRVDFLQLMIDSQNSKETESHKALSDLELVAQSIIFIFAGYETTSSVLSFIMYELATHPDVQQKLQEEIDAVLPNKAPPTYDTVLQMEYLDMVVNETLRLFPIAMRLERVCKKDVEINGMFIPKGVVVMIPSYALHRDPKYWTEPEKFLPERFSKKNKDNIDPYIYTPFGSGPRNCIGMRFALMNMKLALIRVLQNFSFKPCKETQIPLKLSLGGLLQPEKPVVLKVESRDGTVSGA
The target in data set [4] is T1, CYP2C9. As to conditions: read-out: Ki, CYP2C9-catalyzed diclofenac hydroxylation; mixed or competitive inhibition, human liver microsomes; cited from earlier work.
For data set [5] the following is noted: human liver microsomes; cited from earlier work.
Data set [6] deals with T5, CYP2C19 (Homo sapiens, UniProt P33261). As to conditions: human liver microsomes; cited from earlier work.
T5 sequence (P33261 whole entry): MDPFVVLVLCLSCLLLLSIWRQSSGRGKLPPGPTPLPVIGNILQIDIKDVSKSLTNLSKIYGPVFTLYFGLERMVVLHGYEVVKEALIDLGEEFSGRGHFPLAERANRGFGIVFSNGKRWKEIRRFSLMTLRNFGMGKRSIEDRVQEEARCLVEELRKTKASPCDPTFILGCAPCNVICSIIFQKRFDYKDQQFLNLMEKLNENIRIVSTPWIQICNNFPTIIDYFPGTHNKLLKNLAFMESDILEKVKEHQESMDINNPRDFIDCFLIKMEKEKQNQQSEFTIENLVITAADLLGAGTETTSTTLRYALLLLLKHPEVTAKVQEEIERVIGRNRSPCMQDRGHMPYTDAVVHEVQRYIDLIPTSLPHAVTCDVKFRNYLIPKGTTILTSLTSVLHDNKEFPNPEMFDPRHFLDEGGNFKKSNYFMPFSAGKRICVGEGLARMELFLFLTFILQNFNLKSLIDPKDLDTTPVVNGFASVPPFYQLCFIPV
Data set [7] deals with T4, CYP3A4. As to conditions: enzyme source not given; cited from earlier work.
The test system of data set [8] is human recombinant CYP2C19. The settings on record: mixed-type inhibition, human recombinant CYP2C19 enzymes; read-out: Ki, [S]-mephenytoin hydroxylation activity; cited from earlier work.
The target of data set [9] is T3, CYP2C8. On the set-up: CYP2C8, CYP2C9, CYP2C19 and CYP3A4 activities in ultrapooled human liver microsomes were evaluated; from tissue; host or cells: ultrapooled human liver microsomes; method as in PMID 15304522. As to conditions: typical CYP2C8 inhibitors; cited from earlier work.
For the next data set, the target named is T6, UGT2B7 (Homo sapiens, UniProt P16662).
T6 construct: ultrapooled human liver microsomes (0.2 mg/mL), 5 mM UDPGA; from tissue; host or cells: ultrapooled human liver microsomes
T6 sequence (P16662 24-529): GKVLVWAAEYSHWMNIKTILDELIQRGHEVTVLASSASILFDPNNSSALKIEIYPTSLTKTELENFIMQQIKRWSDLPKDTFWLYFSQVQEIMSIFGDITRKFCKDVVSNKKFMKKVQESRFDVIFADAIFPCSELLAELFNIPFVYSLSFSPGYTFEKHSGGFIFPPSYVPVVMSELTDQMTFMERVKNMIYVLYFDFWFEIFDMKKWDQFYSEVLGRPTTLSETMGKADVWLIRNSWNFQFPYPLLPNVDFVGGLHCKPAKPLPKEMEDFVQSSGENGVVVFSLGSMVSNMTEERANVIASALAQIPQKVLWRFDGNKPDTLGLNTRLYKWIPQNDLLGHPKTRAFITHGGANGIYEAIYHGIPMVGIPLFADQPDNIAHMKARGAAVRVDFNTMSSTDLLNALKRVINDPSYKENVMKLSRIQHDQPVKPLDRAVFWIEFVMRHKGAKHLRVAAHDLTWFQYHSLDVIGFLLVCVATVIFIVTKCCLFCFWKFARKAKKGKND
Further details: method as in PMID 23230132. The settings on record: human liver and intestinal microsomes; cited from earlier work.

A further data set concerns human recombinant CYP3A4. As to conditions: competitive inhibition, human recombinant CYP3A4 enzymes; read-out: Ki, CYP3A4-catalyzed diltiazem N-demethylation; cited from earlier work.
A further data set concerns the target T7, UGT1A9 (Homo sapiens, UniProt O60656).
T7 construct: ultrapooled human liver microsomes (0.2 mg/mL), 5 mM UDPGA; from tissue; host or cells: ultrapooled human liver microsomes
T7 sequence (O60656 26-530): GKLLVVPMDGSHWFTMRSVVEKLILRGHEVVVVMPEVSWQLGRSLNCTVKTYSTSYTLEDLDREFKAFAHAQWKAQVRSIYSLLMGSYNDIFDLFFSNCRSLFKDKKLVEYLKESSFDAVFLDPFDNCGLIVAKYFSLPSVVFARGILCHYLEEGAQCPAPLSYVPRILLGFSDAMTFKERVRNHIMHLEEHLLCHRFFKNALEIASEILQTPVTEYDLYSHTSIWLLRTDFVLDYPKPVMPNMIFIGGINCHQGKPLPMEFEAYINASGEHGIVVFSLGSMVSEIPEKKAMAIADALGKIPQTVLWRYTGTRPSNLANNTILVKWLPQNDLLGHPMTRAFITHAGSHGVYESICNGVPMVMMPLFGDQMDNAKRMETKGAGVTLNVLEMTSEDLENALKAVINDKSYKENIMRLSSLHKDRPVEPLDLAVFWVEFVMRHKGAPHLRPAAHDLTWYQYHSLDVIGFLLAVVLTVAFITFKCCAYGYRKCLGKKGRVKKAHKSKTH
Further details: method as in PMID 23230132. The settings on record: human liver and intestinal microsomes; cited from earlier work.

Data set [10] addresses T4, CYP3A4. The settings on record: human liver microsomes, time-dependent inhibitors with reported clinical drug–drug interaction; cited from earlier work.
Data set [11] concerns the target T5, CYP2C19. As to conditions: typical mechanism-based CYP2C19 inhibitors; cited from earlier work.

T1 sequence (P11712 whole entry): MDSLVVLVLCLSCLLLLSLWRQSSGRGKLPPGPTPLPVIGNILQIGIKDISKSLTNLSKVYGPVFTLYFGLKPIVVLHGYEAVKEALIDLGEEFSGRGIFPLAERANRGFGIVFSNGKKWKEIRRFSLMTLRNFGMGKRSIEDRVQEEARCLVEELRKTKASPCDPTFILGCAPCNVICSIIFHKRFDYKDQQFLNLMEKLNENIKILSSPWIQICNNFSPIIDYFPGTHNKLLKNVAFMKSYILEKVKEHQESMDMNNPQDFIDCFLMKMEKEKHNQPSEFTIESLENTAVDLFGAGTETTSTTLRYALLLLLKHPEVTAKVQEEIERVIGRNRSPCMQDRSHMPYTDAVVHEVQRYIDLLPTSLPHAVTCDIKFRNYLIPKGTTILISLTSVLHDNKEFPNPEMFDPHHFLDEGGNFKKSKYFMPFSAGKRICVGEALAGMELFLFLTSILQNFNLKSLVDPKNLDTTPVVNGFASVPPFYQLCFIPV

In the case of `CC(C(=O)O)c1ccc(C(=O)c2cccs2)cc1` (racemic) [(±)-suprofen], on CYP2C9 [1], the “inactivation efficiency (kinact/Ki), CYP2C9” value is 18.3 M⁻¹ s⁻¹.
One may read the Ki as a measure of affinity in units of concentration, obtained from inhibition or displacement. For `O=C(c1cccc2ccccc12)c1cn(CCCCCF)c2ccccc12` [AM-2201], the figures for the inhibition constant (Ki) at UGT1A3, on CYP3A4 [3] and at CYP2C9 [4] were 4.3 µM, 4 µM and 3.9 µM, respectively. Further, the “inactivation efficiency (kinact/Ki), CYP2C8” value at CYP2C8 [2] is 430 M⁻¹ s⁻¹. For the same compound, the “time-dependent inhibition of CYP2C8 activity” value at CYP2C8 [2] was “exhibited time-dependent inhibition”. The number of metabolites in data set [5] was 19 metabolites. Moreover, on CYP2C19 [6], the “inhibition of CYP2C19-catalyzed [S]-mephenytoin hydroxylation” value was “did not inhibit”.
With `Cc1ccc(C(=O)c2cn(CCCCCF)c3ccccc23)c2ccccc12` [MAM-2201, (1-(5-fluoropentyl)-1H-indol-3-yl)(4-methyl-1-naphthalenyl)-methanone], the Ki is 5 µM at UGT1A3, 5.4 µM on CYP3A4 [3] and 5.6 µM on CYP2C9 [4]. Besides, the “inactivation efficiency (kinact/Ki), CYP2C8” value on CYP2C8 [2] was 1230 M⁻¹ s⁻¹. In addition, on CYP2C8 [2], the “time-dependent inhibition of CYP2C8 activity” value is given as “exhibited time-dependent inhibition”. Also, the number of metabolites in data set [5] is 19 metabolites. Also, the “inhibition of CYP2C19-catalyzed [S]-mephenytoin hydroxylation” value on CYP2C19 [6] was “did not inhibit”.
For `CCCCCc1cc(O)c2c(c1)OC(C)(C)[C@@H]1CCC(C)=C[C@@H]21` [THC, ∆9-tetrahydrocannabinol], the “inhibition of CYP3A4 activity” value on CYP3A4 [7] is on record as “did not inhibit”. In addition, the Ki was 1.93 µM in data set [8] and 1.31 µM on CYP2C9 [4].
`CCCCc1oc2ccccc2c1C(=O)c1cc(I)c(OCCN(CC)CC)c(I)c1` [amiodarone]: the “inactivation efficiency (kinact/Ki), CYP2C8” value at CYP2C8 [9] is 9.5 M⁻¹ s⁻¹.
With `C=C(C)[C@@H]1CCC(C)=C[C@H]1c1c(O)cc(CCCCC)cc1O` [cannabidiol], on UGT2B7, the “inhibition of UGT2B7 activity” value is “inhibited”. Moreover, the Ki in data set [8] was 0.793 µM; in the data set with human recombinant CYP3A4, 1 µM. Also, the “inhibition of UGT1A9 activity” value on UGT1A9 is given as “inhibited”.
For `CCCCCc1cc(O)c2c(c1)OC(C)(C)c1ccc(C)cc1-2` [cannabinol], the “inhibition of UGT2B7 activity” value at UGT2B7 was “inhibited”. At CYP3A4 [7], the “inhibition of CYP3A4 activity” value was “did not inhibit”. The “inhibition of UGT1A9 activity” value on UGT1A9 is “inhibited”.
Turning to `CC[C@H]1OC(=O)[C@H](C)[C@@H](O[C@H]2C[C@@](C)(OC)[C@@H](O)[C@H](C)O2)[C@H](C)[C@@H](O[C@@H]2O[C@H](C)C[C@H](N(C)C)[C@H]2O)[C@](C)(OC)C[C@@H](C)C(=O)[C@H](C)[C@@H](O)[C@]1(C)O` [clarithromycin], the “inactivation efficiency (kinact/Ki), CYP3A4” value on CYP3A4 [10] was 46.7 M⁻¹ s⁻¹.
For the compound `COC(=O)[C@H](c1ccccc1Cl)N1CCc2sccc2C1` [clopidogrel], the “inactivation efficiency (kinact/Ki), CYP2C19” value at CYP2C19 [11] was 65 M⁻¹ s⁻¹.
As usually defined, the IC50 is the concentration at which inhibition is half-maximal. On to `CC1(C)[C@@H](O)CC[C@]2(C)[C@H]3C(=O)C=C4[C@@H]5C[C@@](C)(C(=O)O)CC[C@]5(C)CC[C@@]4(C)[C@]3(C)CC[C@@H]12` [glycyrrhetinic acid], for which the IC50 on UGT1A3 (read-out: IC50, UGT1A3-catalyzed chenodeoxycholic acid 24-acyl glucuronidation, selective UGT1A3 inhibitor) was 4.3 µM.
Turning to `NNCCc1ccccc1` [phenelzine], the “inactivation efficiency (kinact/Ki), CYP2C8” value at CYP2C8 [9] is 52.2 M⁻¹ s⁻¹.
In the case of `O=C(O)COc1ccc(C(=O)c2cccs2)c(Cl)c1Cl` [tienilic acid], the “inactivation efficiency (kinact/Ki), CYP2C9” value at CYP2C9 [1] was 142 M⁻¹ s⁻¹.
